Patent US10328116B2, “Combinations of proteasome inhibitors and cyclic peptides” (BIG DNA LTD, priority 2014, dated 2019)
Like-named read-outs stand apart in the source and are kept apart here.

Legend:
[1] = tested on: WSU-DLCL2 lymphoma xenograft; settings: at MTD; cited from earlier work
[2] = tested on: NCI H-929 Multiple Myeloma Cell Line; test: NCI H-929 sub-cutaneous xenograft, varied BTZ dose, TGI and TTE (Example 8); assay type: in vivo, mouse; settings: endpoint day 18
Protocol: Cilengitide or vehicle was supplied as daily intra-peritoneal injection (45 mg/kg). […] After this point, dosing was continued in groups receiving 0.2 mg/kg and 0.5 mg/kg BTZ±cilengitide until day 31 to allow comparative tumour growth delay (i.e. difference in time to endpoint (TTE). […] TTE was calculated as TTE=[log(endpoint volume)-b]/m where TTE is expressed in days, endpoint volume is expressed in mm^3, b is the intercept, and m is the slope of the line obtained by linear regression of a log-transformed tumour growth data set. TTE values were plotted in Kaplan-Meier diagrams (FIGS. 9 and 10).

[3] = tested on: CWR22 human prostate cancer xenografts; settings: cited from earlier work
20S proteasome = 20S proteasome (Homo sapiens, UniProt P20618+P28074); settings: cited from earlier work
[4] = tested on: NCI H-929 human multiple myeloma cells; test: NCI-H929 sub-cutaneous xenograft mouse tumor model, 'high' bortezomib dose (Example 7); assay type: in vivo; settings: for Complete response (mice) / No response (mice) / Partial response (mice) / Total RR % (PR+CR): bortezomib 1 mg/kg IV biweekly, cilengitide 45 mg/kg IP QD, N = 10 mice per group
Text: This was then continued until Day 21.
Partial response (PR) is defined as the first measurement of the tumor volume being 50% or less of its Day 1 volume for three consecutive measurements during the course of the study, and equal to or greater than 13.5 mm^3 for one or more of these three measurements. In a complete response (CR), the tumor volume was less than 13.5 mm^3 for three consecutive measurements during the course of the study. Total response rate (RR) is the sum of PR+CR. Treatment began on day 1 and was stopped on Day 21.

[5] = tested on: chymotrypsin-like activity of the proteasome; settings: highest dose used in the phase I trial; cited from earlier work
Cos7 cells = test: Sulforhodamine B relative cell growth assay in Cos7 cells (Example 2); assay type: cell-based; settings: COS-7 (αvβ3 −ve); 10 μM proteasome inhibitor, absence of cRGDfK
[6] = phase II trials; heavily pretreated patient population; cited from earlier work
HEK293 cells = test: Sulforhodamine B relative cell growth assay in HEK293 cells (Examples 1-3); assay type: cell-based; settings: HEK293 (αvβ3 +ve); 10 μM proteasome inhibitor, absence of cRGDfK
Protocol: Established methodology was used to prepare 80-100% confluent monolayers of HEK293 cells in T75 flasks. Cells were cultured in DMEM (Lonza) supplemented with 10% FBS (Gibco), 2 mM L-glutamine, 100 U/mL penicillin and 100 μg/mL streptomycin (“complete DMEM”).
The cells in T75 flasks were trypsinised and resuspended in complete DMEM. The cells were counted using a Neubauer chamber and seeded at approximate density of 3×10^4 cells/cm^2 and 7500 cells/cm^2 in 96 well flat bottomed tissue culture plates (Corning) 0.1 mL cell suspension per well. Cells were incubated for 24 hours at 37° C./5% CO2 (humidified).
To provide a working stock, BTZ was diluted to 10 mM in DMSO. […]
Briefly: medium was removed from wells and replaced with an equal volume of PBS. […] Optical density (OD570nm) was determined using an ELISA plate reader (Dynex MRX, Dynex Technologies).
In total, 5 replicates of the experiment were carried out. Cells treated with peptide/BTZ mixtures or control mixtures were incubated for 24 hours at 37° C./5% CO2 (humidified) then analysed by sulforhodamine B assay.
The average of the background measurements (i.e. no cells, medium only) was subtracted from each reading. ‘Ti’ is OD570nm following 24 hours treatment with drugs. […]
Using these equations, control cell growth is assigned a relative cell growth value of 100% and all cell growth values are calculated relative to this figure. […]

[7] = tested on: T47D breast cancer cell line; test: Sulforhodamine B viability, isobologram and combination index in T47D cells (Examples 4-5); assay type: cell-based; settings: single agent at its IC50
Protocol: For assessment of combined BTZ and cilengitide toxicity, T47D cells were seeded at a density of 7500 cells/cm^2 in 96-well cell culture plates and incubated for 24 hours. Cilengitide was diluted to 20 μM in complete DMEM, then 3 serial tenfold dilutions of this were performed in complete DMEM (2 μM, 200 nM and 20 nM). Complete DMEM containing no cilengitide was provided for negative controls.
These dilutions (or DMSO for wells containing no BTZ) were added to aliquots of complete DMEM containing 0-20 μM cilengitide for a 1/150 dilution. Aliquots (0.1 mL) of each mixture were added to wells already containing 0.1 mL medium (in duplicate), resulting in a matrix of cilengitide (10 nM-10 μM) and/or BTZ (1 nM-10 μM) or neither agent (diluent only).
OD570nm readings were divided by those resulting from negative control (diluent only) wells and expressed as a percentage. Three independent replicates of this experiment were carried out.
The isoboles were obtained similarly by extrapolation of points representing 50% reduction in viability from line graphs of % viability versus concentration of one agent at variable concentration with the other agent supplied at a fixed concentration. […]

PHTX22L xenografts = settings: MTD level treatment; cited from earlier work
DP54-Luc model = settings: in vivo; cited from earlier work
Oci-Ly7-Luc = settings: disseminated lymphoma; cited from earlier work
chymotrypsin-like sites = chymotrypsin-like sites (Homo sapiens, UniProt P28074); settings: cited from earlier work
[8] = at maximum tolerated dose (MTD)

chymotrypsin-like sites, sequence (P28074 60-263): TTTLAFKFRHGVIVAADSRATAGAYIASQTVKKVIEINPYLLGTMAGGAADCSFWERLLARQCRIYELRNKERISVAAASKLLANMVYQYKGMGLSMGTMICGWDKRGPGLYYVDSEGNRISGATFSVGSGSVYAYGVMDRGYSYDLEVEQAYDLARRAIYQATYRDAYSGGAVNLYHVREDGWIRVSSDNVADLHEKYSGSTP

SMILES: CC(C)C[C@H](NC(=O)[C@H](Cc1ccccc1)NC(=O)c1cnccn1)B(O)O [Bortezomib]
- anti-tumoral activity [1]: ineffective
- Tumour growth inhibition (TGI) ([2]; 0.5 mg/kg BTZ and below, without cilengitide): virtually ineffective
- Tumour growth inhibition (TGI) ([2]; BTZ doses of 0.7 mg/kg and greater, biweekly i.v.): almost complete TGI
- anti-tumoral activity [3, 8]: effective anti-tumoral activity
- proteasome dissociation half-life (20S proteasome): approximately 110 minutes
- animals that relapsed (complete relapse) ([4]; By Day 42, of 10 animals per group): 3

SMILES: CC(C)C[C@H](NC(=O)[C@H](CCc1ccccc1)NC(=O)CN1CCOCC1)C(=O)N[C@@H](Cc1ccccc1)C(=O)N[C@@H](CC(C)C)C(=O)[C@@]1(C)CO1 [Carfilzomib]
- inhibition of the chymotrypsin-like activity of the proteasome in blood of patients [5]: 88%
- cell growth relative to untreated control cells (Cos7 cells): greater activity than ixazomib, delanzomib and oprozomib
- partial response rate [6]: 24%
- cell growth relative to untreated control cells (HEK293 cells): greater activity than ixazomib, delanzomib and oprozomib

SMILES: CC(C)[C@H]1C(=O)N[C@@H](CCCN=C(N)N)C(=O)NCC(=O)N[C@@H](CC(=O)O)C(=O)N[C@H](Cc2ccccc2)C(=O)N1C [Cilengitide]
- CI (combination index) [7]: 1.00
- Complete response (mice) ([4]; Day 1): 0
- No response (mice) ([4]; Day 1): 10
- Partial response (mice) ([4]; Day 1): 0
- Total RR % (PR+CR) ([4]; Day 1): 0%
- Complete response (mice) ([4]; Day 4): 0
- No response (mice) ([4]; Day 4): 10
- Partial response (mice) ([4]; Day 4): 0
- Total RR % (PR+CR) ([4]; Day 4): 0%
- Complete response (mice) ([4]; Day 8): 0
- No response (mice) ([4]; Day 8): 10
- Partial response (mice) ([4]; Day 8): 0
- Total RR % (PR+CR) ([4]; Day 8): 0%
- Complete response (mice) ([4]; Day 12): 0
- No response (mice) ([4]; Day 12): 10
- Partial response (mice) ([4]; Day 12): 0
- Total RR % (PR+CR) ([4]; Day 12): 0%
- Complete response (mice) ([4]; Day 15): 0
- No response (mice) ([4]; Day 15): 10
- Partial response (mice) ([4]; Day 15): 0
- Total RR % (PR+CR) ([4]; Day 15): 0%
- Complete response (mice) ([4]; Day 18): 0
- No response (mice) ([4]; Day 18): 10
- Partial response (mice) ([4]; Day 18): 0
- Total RR % (PR+CR) ([4]; Day 18): 0%
- Complete response (mice) ([4]; Day 21): 0
- No response (mice) ([4]; Day 21): 10
- Partial response (mice) ([4]; Day 21): 0
- Total RR % (PR+CR) ([4]; Day 21): 0%

SMILES: CC(C)C[C@H](NC(=O)CNC(=O)c1cc(Cl)ccc1Cl)B(O)O [Ixazomib, [(1R)-1-[[2-[(2,5-dichlorobenzoyl)amino]acetyl]amino]-3-methyl-butyl]boronic acid]
- anti-tumoral activity [1]: significant anti-tumoral activity
- anti-tumoral activity ([3]; at half the MTD): more effective than bortezomib
- anti-tumoral activity [3, 8]: effective anti-tumoral activity
- proteasome dissociation half-life (20S proteasome): approximately 18 minutes
- release from the proteasome relative to bortezomib (20S proteasome; faster than bortezomib): approximately 6 fold
- anti-tumoral effect (PHTX22L xenografts): only ixazomib was found to exhibit an anti-tumoral effect
- alleviation of osteolytic bone disease (DP54-Luc model): effective in the alleviation of osteolytic bone disease
- antitumoral effect (Oci-Ly7-Luc): improved antitumoral effect compared with bortezomib

SMILES: C[C@@]12OC(=O)[C@]1([C@@H](O)[C@@H]1C=CCCC1)NC(=O)[C@@H]2CCCl [Marizomib]
- inhibition of the chymotrypsin-like sites (chymotrypsin-like sites): up to 100%
